The values below are quoted from earlier work in patent US8470984B2, “Process for the preparation of morpholinyl anthracycline derivatives” (Nerviano Medical Sciences S.R.L., priority 2010, dated 2013).

Turning to `COc1cccc2c1C(=O)c1c(O)c3c(c(O)c1C2=O)C[C@@](O)(C(=O)CO)C[C@@H]3O[C@H]1C[C@H]2[C@H](O[C@@H]3[C@@H](OC)OCCN32)[C@H](C)O1` [compound 1, 3′-deamino-3″-4′-anhydro-[2″(S)-methoxy-3″(R)-hydroxy-4″-morpholinyl]doxorubicin], the “cytotoxicity in vitro relative to nemorubicin and doxorubicin” value was “more cytotoxic than nemorubicin and doxorubicin”. For the same compound, in the series on tumor models, the “efficacy in in vivo tumor models” value is “effective in in vivo tumor models”.
